The values that follow come from article PMC8597786 (Antimicrobial Agents and Chemotherapy, 2021).

Read-outs that look alike come from different tables or passages of the source.

Common to all, as to experiment: microbe, parasite or virus in culture
Assay [1] relates to SARS-CoV-2 variant B.1.351. In kind it is cell-based, SARS-CoV-2 B.1.351.
For assay [2], the system named is SARS-CoV-2 variant B.1.1.7. The assay is classed as cell-based, SARS-CoV-2 B.1.1.7.
In assay [3] the test system is SARS-CoV-2 variant B.1.1.7. The assay is classed as cell-based, SARS-CoV-2 B.1.1.7. The following applies: Severe acute respiratory syndrome coronavirus 2, Vero C1008, 96 h; 4 days; read-out: EC50 for CPE scoring-based assay for B.1.1.7.
Assay [4] deals with SARS-CoV-2 variant B.1.1.7. The note with it: for EC50: Severe acute respiratory syndrome coronavirus 2, Vero C1008, 168 h, read-out: EC50: viability restoration in infected cells for B.1.1.7.
Assay [5] concerns SARS-CoV-2 variant B.1.351. In kind it is cell-based, SARS-CoV-2 B.1.351. The following applies: for EC50: Severe acute respiratory syndrome coronavirus 2, Vero C1008, 96 h, 4 days, read-out: EC50 for CPE scoring-based assay for B.1.351.
Assay [6] relates to SARS-CoV-2 (USA-WA1/2020 variant). The assay is classed as cell-based. The following applies: Severe acute respiratory syndrome coronavirus 2, Vero C1008, 96 h; 4 days; read-out: EC50: viability restoration in infected cells for WA1/2020.
Assay [7] shares this test system. In kind it is cell-based. The following applies: for EC50: Severe acute respiratory syndrome coronavirus 2, Vero C1008, 48 h, read-out: EC50: yield reduction assay for WA1/2020.
Assay [8] deals with SARS-CoV-2 variant B.1.351. The assay is classed as cell-based, SARS-CoV-2 B.1.351. The note with it: Severe acute respiratory syndrome coronavirus 2, Vero C1008, 168 h, read-out: EC50: viability restoration in infected cells for B.1.351.
The test system of assay [9] is SARS-CoV-2 (USA-WA1/2020 variant). In kind it is cell-based.
Where [10] appears, read: Severe acute respiratory syndrome coronavirus 2, Vero C1008, 96 h, 4 days, read-out: EC50 for CPE scoring-based assay for WA1/2020.
Setting [11] is: Severe acute respiratory syndrome coronavirus 2, Vero C1008, read-out: EC50s, range over cytopathic effect and yield reduction assays.

For `Oc1ccc([C@@H]2c3c(O)cc(O)cc3[C@@H]3c4c(cc(O)cc4[C@H]2[C@@H]2c4cc(O)cc5c4[C@@H](c4cc(O)cc(O)c4[C@H]2c2ccc(O)cc2)[C@H](c2ccc(O)cc2)O5)O[C@H]3c2ccc(O)cc2)cc1` [Hopeaphenol, (–)-hopeaphenol], the “% infected, Average” value stood at 20.6% in [1] (3 μM); 11.6% in [1] (10 μM); 9.9% in assay [1] (20 μM); 0.1% in assay [1] (50 μM); 12.1% in [2] (3 μM); 10.4% in [2] (10 μM). For the same molecule, the “% infected, Average” value was 6.7% in assay [2] (20 μM); 0.0% in assay [2] (50 μM); 29.2% in assay [7] (1 μM); 23.0% in [7] (3 μM); 18.7% in [7] (10 μM); 11.5% in [7] (30 μM). For the same molecule, the “% infected, Average” value in assay [7] (50 μM) was 3.6%. Moreover, the EC50 in assay [1] (Severe acute respiratory syndrome coronavirus 2, Vero C1008, 48 h, read-out: EC50: yield reduction assay for B.1.351) was found to be 8.8 µM; in assay [2] (Severe acute respiratory syndrome coronavirus 2, Vero C1008, 48 h, read-out: EC50: yield reduction assay for B.1.1.7), 11.4 µM; in assay [3], 14.8 µM; in assay [4], 7.8 µM; in assay [5], 2.3 µM; in assay [6], 23.4 µM. The EC50 is 13.5 µM in [7]; 7.5 µM in [8]; 10.2 µM in [9] (setting [10]); 10.2 to 23.4 µM in assay [9] (setting [11]); 2.3 to 23.4 µM in assay [9] (Severe acute respiratory syndrome coronavirus 2, read-out: EC50s in infectious viral assays, range). The “Fold improved activity against B.1.351 over USA-WA1/2020 (CPE EC50)” value in [5] is on record as 4.5 fold.
`Oc1ccc([C@@H]2c3c(O)cc(O)cc3[C@@H]3c4c(cc(O)c5c4[C@@H]2[C@H](c2ccc(O)cc2)[C@H]5c2cc(O)cc4c2[C@@H](c2cc(O)cc(O)c2)[C@H](c2ccc(O)cc2)O4)O[C@H]3c2ccc(O)cc2)cc1` [Vaticanol B, vaticanol B]: the EC50 in assay [3] was 32.4 µM; in assay [4], > 50 µM; in [5], 25.3 µM; in assay [6] it was > 50 µM; in assay [7], > 50 µM; in [8] it was > 50 µM. For the same molecule, in assay [9] (setting [10]), the EC50 is 37 µM. Moreover, the “% infected, Average” value was 30.0% in assay [7] (10 μM), 26.8% in assay [7] (30 μM) and 16.9% in assay [7] (50 μM).
As to `Oc1ccc(/C=C/c2cc(O)cc(O)c2)cc1` [Resveratrol, resveratrol, reference compound], the EC50 in assay [6] is > 50 µM; in [9] (setting [10]) it was > 100 µM.
As for `CC(C)C[C@H](NC(=O)OCc1ccccc1)C(=O)N[C@@H](CC1CCNC1=O)C(O)S(=O)(=O)O` (stereo partly drawn) [GC-376, reference compound], the EC50 in assay [9] (4 days, read-out: EC50 for CPE scoring-based assay for WA1/2020) is 3.9 µM.
`CCC(CC)COC(=O)[C@H](C)N[P@](=O)(OC[C@H]1O[C@@](C#N)(c2ccc3c(N)ncnn23)[C@H](O)[C@@H]1O)Oc1ccccc1` [Remdesivir, remdesivir, reference compound]: the EC50 in assay [3] is 1.5 µM; in assay [4] it was > 10 µM; in assay [5], 1.4 µM; in assay [6], 7.3 µM; in assay [7] it was 1 µM; in assay [8] it was > 10 µM. Moreover, the EC50 in assay [9] (setting [10]) is 2.5 µM; in assay [9] (setting [11]) it was 1 to 7.3 µM. Also, the “% infected, Average” value was found to be 21.0% in assay [7] (0.3 μM), 13.5% in assay [7] (1 μM), 8.5% in assay [7] (3 μM) and 0.0% in assay [7] (10 μM).
Turning to `OC[C@H]1O[C@@H](Oc2cc3c4c(c2)[C@@H]([C@@H]2c5cc(O)cc6c5[C@@H](c5cc(O)cc(O)c5[C@H]2c2ccc(O)cc2)[C@H](c2ccc(O)cc2)O6)[C@H](c2ccc(O)cc2)c2c(O)cc(O)cc2[C@H]4[C@H](c2ccc(O)cc2)O3)[C@H](O)[C@@H](O)[C@@H]1O` [Vatalbinoside A, vatalbinoside A], the EC50 is 4 µM in assay [3]; > 50 µM in assay [4]; 3.6 µM in [5]; 18.8 µM in assay [6]; 19.1 µM in assay [7]; 11.3 µM in assay [8]. In [9] (setting [10]), the EC50 was determined as 13.8 µM. The viability at 20 µM in assay [4] (Severe acute respiratory syndrome coronavirus 2, read-out: Restored viability in B.1.1.7-infected cells) was ≤ 51.2%. For the same molecule, the “% infected, Average” value in assay [7] (1 μM) is given as 17.1%; in assay [7] (3 μM), 17.8%; in assay [7] (10 μM), 16.7%; in assay [7] (30 μM), 9.9%; in assay [7] (50 μM) it was 11.2%.
